Results reported in patent US9815787B2, “Sulfonamide derivative or pharmaceutically acceptable acid addition salt thereof” (UNIVERSITY OF TSUKUBA, priority 2013, dated 2017).

Biological target: T1, OX2R (Homo sapiens, UniProt O43614)
T1 construct: expressed in transfected cells; host or cells: CHO (Chinese hamster ovary) cells constitutively expressing the OX2R gene and NFAT-luciferase (CHOOX2R)
T1 sequence (O43614 1-444): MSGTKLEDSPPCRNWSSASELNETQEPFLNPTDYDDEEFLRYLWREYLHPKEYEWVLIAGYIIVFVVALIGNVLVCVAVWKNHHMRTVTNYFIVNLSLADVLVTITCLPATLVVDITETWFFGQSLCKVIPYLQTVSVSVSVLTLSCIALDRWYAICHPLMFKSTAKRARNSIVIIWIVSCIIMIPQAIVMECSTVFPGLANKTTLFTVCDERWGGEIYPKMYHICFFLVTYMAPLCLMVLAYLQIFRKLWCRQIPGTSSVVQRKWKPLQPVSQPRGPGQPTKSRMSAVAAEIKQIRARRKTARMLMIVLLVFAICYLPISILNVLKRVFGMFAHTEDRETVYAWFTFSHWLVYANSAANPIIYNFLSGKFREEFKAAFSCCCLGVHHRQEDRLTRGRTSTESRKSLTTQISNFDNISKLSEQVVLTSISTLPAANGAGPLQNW
Assay: Evaluation of agonist activity against OX2R (CHOOX2R cells, Fura2AM fluorescence, FDSS3000)
Type: cell-based
Procedure, shortened: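 CHO cells stably expressing human OX2R (and NFAT-luciferase), cultured 48 h in 5% FBS DMEM. Agonist response read as change in Fura2AM fluorescence on compound addition in HEPES buffer. Final compound concentrations 0.1, 1.0 or 10 μM; 1% DMSO.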

[1] = test compound 0.1 μM; CHOOX2R cells; relative to orexin-A as full agonist (100%)
[2] = test compound 1.0 μM; CHOOX2R cells; relative to orexin-A as full agonist (100%)
[3] = test compound 10 μM; CHOOX2R cells; relative to orexin-A as full agonist (100%)
[4] = OX2R agonist activity; CHOOX2R cells
[5] = conversion with orexin-A as full agonist (maximum agonist activity 100%)
[6] = test compound 0.1 μM; relative to orexin-A as full agonist (100%); CHOOX2R cells
[7] = test compound 1.0 μM; relative to orexin-A as full agonist (100%); CHOOX2R cells
[8] = test compound 10 μM; relative to orexin-A as full agonist (100%); CHOOX2R cells

Row | Response (0.1 μM (%)) [1] [%] | Response (1.0 μM (%)) [2] [%] | Response (10 μM (%)) [3] [%] | EC50 [4] [nM] | Emax [5] [%] | Response (0.1 μM (%)) [6] [%] | Response (1.0 μM (%)) [7] [%] | Response (10 μM (%)) [8] [%] | SMILES
1 | 19 | 90 | 90 | – | – | – | – | – | COc1ccc(-c2cccc(C(=O)N3CCC3)c2)cc1S(=O)(=O)Nc1cccc(NCCNC(=O)c2c(OC)cccc2OC)c1 [Example 85, N-(2-((3-(3′-(azetidine-1-carbonyl)-4-methoxy-[1,1′-biphenyl]-3-ylsulfonamido)phenyl)amino)ethyl)-2,6-dimethoxybenzamide]
2 | 7 | 58 | 70 | – | – | – | – | – | COc1ccc(-c2cccc(C(=O)N3CCC3)c2)cc1S(=O)(=O)Nc1cccc(NCCNC(=O)c2cccc(F)c2)c1 [Example 84, N-(2-((3-(3′-(azetidine-1-carbonyl)-4-methoxy-[1,1′-biphenyl]-3-ylsulfonamido)phenyl)amino)ethyl)-3-fluorobenzamide]
3 | – | – | – | – | – | <5 | <5 | 28 | COc1ccccc1C(=O)NCCNc1cccc(NS(=O)(=O)c2cccc(-c3cccc(C(=O)N(C)C)c3)c2)c1 [Example 110, 3′-(N-(3-((2-(2-methoxybenzamido)ethyl)amino)phenyl)sulfamoyl)-N,N-dimethyl-[1,1′-biphenyl]-3-carboxamide]
4 | 42 | 90 | 80 | – | – | – | – | – | COc1ccc(-c2cccc(C(=O)N3CCCC3)c2)cc1S(=O)(=O)Nc1cccc(NCCNC(=O)c2ccccc2Cl)c1 [Example 87, 2-chloro-N-(2-((3-(4-methoxy-3′-(pyrrolidine-1-carbonyl)-[1,1′-biphenyl]-3-ylsulfonamido)phenyl)amino)ethyl)benzamide]
5 | 76 | 100 | 86 | – | – | – | – | – | COc1ccc(-c2cccc(C(=O)N3CCCC3)c2)cc1S(=O)(=O)Nc1cccc(NCCNC(=O)c2c(F)cccc2F)c1 [Example 88, 2,6-difluoro-N-(2-((3-(4-methoxy-3′-(pyrrolidine-1-carbonyl)-[1,1′-biphenyl]-3-ylsulfonamido)phenyl)amino)ethyl)benzamide]
6 | – | – | – | – | – | 67 | 88 | 86 | COc1cc(C)c(-c2cccc(C(=O)N(C)C)c2)cc1S(=O)(=O)Nc1cccc(NCCNC(=O)c2ccccc2Cl)c1 [Example 104, 5′-(N-(3-((2-(2-chlorobenzamido)ethyl)amino)phenyl)sulfamoyl)-4′-methoxy-N,N,2′-trimethyl-[1,1′-biphenyl]-3-carboxamide]
7 | 51 | 68 | 88 | – | – | – | – | – | COc1ccc(-c2cccc(C(=O)N3CCCCC3)c2)cc1S(=O)(=O)Nc1cccc(NCCNC(=O)c2ccccc2F)c1 [Example 90, 2-fluoro-N-(2-((3-(4-methoxy-3′-(piperidine-1-carbonyl)-[1,1′-biphenyl]-3-ylsulfonamido)phenyl)amino)ethyl)benzamide]
8 | 42 | 90 | 80 | – | – | – | – | – | COc1ccc(-c2cccc(C(=O)N3CCCCC3)c2)cc1S(=O)(=O)Nc1cccc(NCCNC(=O)c2cccnc2OC)c1 [Example 91, 2-methoxy-N-(2-((3-(4-methoxy-3′-(piperidine-1-carbonyl)-[1,1′-biphenyl]-3-ylsulfonamido)phenyl)amino)ethyl)nicotinamide]
9 | – | – | – | – | – | 77 | 93 | 80 | COc1cc(C)c(-c2cccc(C(=O)N(C)C)c2)cc1S(=O)(=O)Nc1cccc(NCCNC(=O)c2cccnc2OC)c1 [Example 103, N-(2-((3-(3′-(dimethylcarbamoyl)-4-methoxy-6-methyl-[1,1′-biphenyl]-3-ylsulfonamido)phenyl)amino)ethyl)-2-methoxynicotinamide]
10 | – | – | – | – | – | 13 | 46 | 47 | COc1ccccc1C(=O)NCCNc1cccc(NS(=O)(=O)c2cc(-c3cccc(F)c3)ccc2OC)c1 [Example 109, N-(2-((3-(3′-fluoro-4-methoxy-[1,1′-biphenyl]-3-ylsulfonamido)phenyl)amino)ethyl)-2-methoxybenzamide]

Continued, compound first:

Row | SMILES | Response (0.1 μM (%)) [1] [%] | Response (1.0 μM (%)) [2] [%] | Response (10 μM (%)) [3] [%] | EC50 [4] [nM] | Emax [5] [%] | Response (0.1 μM (%)) [6] [%] | Response (1.0 μM (%)) [7] [%] | Response (10 μM (%)) [8] [%]
11 | COc1ccc(-c2cccc(C(=O)N(C)C)c2)cc1S(=O)(=O)Nc1cccc(NCCNC(=O)c2ccccc2C)c1 [Example 65, 4′-methoxy-N,N-dimethyl-3′-(N-(3-((2-(2-methylbenzamido)ethyl)amino)phenyl)sulfamoyl)-[1,1′-biphenyl]-3-carboxamide] | 74 | 96 | 74 | 800 | 85 | – | – | –
12 | COc1ccc(-c2ccccc2F)cc1S(=O)(=O)Nc1cccc(NCCNC(=O)c2ccncc2)c1 [Example 16, N-(2-((3-(2′-fluoro-4-methoxy-[1,1′-biphenyl]-3-ylsulfonamide)phenyl)amino)ethyl)isonicotinamide] | – | – | – | – | – | <5 | <5 | <5
13 | COc1ccccc1C(=O)NCCNc1cccc(NS(=O)(=O)c2cc(-c3ccccc3OC)ccc2OC)c1 [Example 12, N-(2-((3-(2′,4-dimethoxy-[1,1′-biphenyl]-3-ylsulfonamide)phenyl)amino)ethyl)-2-methoxybenzamide] | – | – | – | – | – | <5 | 44 | 73
14 | COc1ccc(-c2ccccc2F)cc1S(=O)(=O)Nc1cccc(NCCNC(=O)c2ccccn2)c1 [Example 14, N-(2-((3-(2′-fluoro-4-methoxy-[1,1′-biphenyl]-3-ylsulfonamide)phenyl)amino)ethyl)picolinamide] | – | – | – | – | – | <5 | <5 | 8
15 | COc1cccc(C(=O)NCCNc2cccc(NS(=O)(=O)c3cc(-c4c(F)cccc4F)ccc3OC)c2)c1 [Example 18, N-(2-((3-(2′,6′-difluoro-4-methoxy-[1,1′-biphenyl]-3-ylsulfonamide)phenyl)amino)ethyl)-3-methoxybenzamide] | – | – | – | – | – | <5 | 13 | 151
16 | COc1ccc(-c2cccc(C(=O)N(C)C)c2)cc1S(=O)(=O)Nc1cccc(NCCNC(=O)c2ccccc2C#N)c1 [Example 71, 3′-(N-(3-((2-(2-cyanobenzamido)ethyl)amino)phenyl)sulfamoyl)-4′-methoxy-N,N-dimethyl-[1,1′-biphenyl]-3-carboxamide] | <5 | 39 | 80 | – | – | – | – | –
17 | COc1ccc(N(C)C)cc1C(=O)NCCNc1cccc(NS(=O)(=O)c2cc(-c3ccccc3F)ccc2OC)c1 [Example 5, 5-(dimethylamino)-N-(2-((3-(2′-fluoro-4-methoxy-[1,1′-biphenyl]-3-ylsulfonamide)phenyl)amino)ethyl)-2-methoxybenzamide] | – | – | – | – | – | <5 | <5 | 23
18 | COc1ccccc1C(=O)NCCNc1cccc(NS(=O)(=O)c2cc(-c3cccc(N)c3)ccc2OC)c1 [Example 37, N-(2-((3-(3′-amino-4-methoxy-[1,1′-biphenyl]-3-ylsulfonamide)phenyl)amino)ethyl)-2-methoxybenzamide] | 16 | 102 | 163 | – | – | – | – | –
19 | COc1ccccc1C(=O)NCCNc1cccc(NS(=O)(=O)c2cc(-c3cc(Cl)ccc3Cl)ccc2OC)c1 [Example 25, N-(2-((3-(2′,5′-dichloro-4-methoxy-[1,1′-biphenyl]-3-ylsulfonamide)phenyl)amino)ethyl)-2-methoxybenzamide] | – | – | – | – | – | <5 | 7 | 38
20 | COc1ccc(-c2cccc(C(=O)N(C)C)c2)cc1S(=O)(=O)Nc1cccc(NCCNC(=O)c2ccccc2Cl)c1 [Example 42, 3′-(N-(3-((2-(2-chlorobenzamido)ethyl)amino)phenyl)sulfamoyl)-4′-methoxy-N,N-dimethyl-[1,1′-biphenyl]-3-carboxamide] | 65 | 103 | 114 | 31 | 90 | – | – | –
21 | COc1cccc(C(=O)NCCNc2cccc(NS(=O)(=O)c3cc(-c4cccc(Cl)c4)ccc3OC)c2)c1 [Example 29, N-(2-((3-(3′-chloro-4-methoxy-[1,1′-biphenyl]-3-ylsulfonamide)phenyl)amino)ethyl)-3-methoxybenzamide] | – | – | – | 800 | 54 | <5 | 16 | 73
22 | COc1ccccc1C(=O)NCCNc1cccc(NS(=O)(=O)c2cc(-c3cc(F)ccc3Cl)ccc2OC)c1 [Example 32, N-(2-((3-(2′-chloro-5′-fluoro-4-methoxy-[1,1′-biphenyl]-3-ylsulfonamide)phenyl)amino)ethyl)-2-methoxybenzamide] | – | – | – | – | – | <5 | 26 | 75
